Results reported in patent US20200138023A1, “MICROBICIDAL COMPOSITION” (DDP Specialty Electronic Materials US 8, LLC, priority 2017, published 2020).
Like-named read-outs stand apart in the source and are kept apart here.

Assays:
[1] = test system: Candida albicans ATCC 10231; assay: Synergy test, high resolution MIC microtiter plate assay, Potato Dextrose Broth; type: cell-based; details: C. albicans ATCC 10231, PDB, contact time 48 hours
From the text: (§1) One measure of synergism is the industrially accepted method described by Kull, F. C.; Eisman, P. C.; Sylwestrowicz, H. D. and Mayer, R. L., in Applied Microbiology 9:538-541 (1961), using the ratio determined by the formula:
(§2) Qa/QA+Qb/QB=Synergy Index (“SI”)
(§3) wherein: • QA=concentration of compound A (first component) in ppm, acting alone, which produced an end point (MIC of Compound A). • Qa=concentration of compound A in ppm, in the mixture, which produced an end point. • QB=concentration of compound B (second component) in ppm, acting alone, which produced an end point (MIC of Compound B). • Qb=concentration of compound B in ppm, in the mixture, which produced an end point.
(§4) When the sum of Qa/QA and Qb/QB is greater than one, antagonism is indicated. […] The lower the SI, the greater is the synergy shown by that particular mixture. The minimum inhibitory concentration (MIC) of a microbicide is the lowest concentration tested under a specific set of conditions that prevents the growth of the tested microorganisms.
(§5) Synergy tests were conducted using standard microtiter plate assays with media designed for optimal growth of the test microorganism. Potato Dextrose Broth (PDB medium) was used for testing yeast and mold. In this method, a wide range of combinations of microbicides and other personal care raw materials was tested by conducting high resolution MIC assays in the presence of lactic acid. High resolution MICs were determined by adding varying amounts of microbicide to one column of a microtitre plate and doing subsequent […] dilutions using an automated liquid handling system to obtain a series of closely spaced endpoints.
(§6) The synergy of the combinations of the present invention was determined against a yeast, Candida albicans (C. albicans—ATCC 10231) and a mold, Aspergillus brasiliensis (A. brasiliensis—ATCC 16404). The yeast and mold were used at concentrations of 5×10^5 cells per mL. These microorganisms are representative of natural contaminants in many consumer and industrial applications.
(§7) In this test, First Component (A) was lactic acid and the Second Component (B) was caprylic acid.
(§8) First Component (A)=Lactic acid (LA) Second Component (B)=Caprylic acid (CA) • Table 1: Aspergillus brasiliensis • ATCC 16404 • Potato Dextrose Broth • Contact Time=7 days • Table 2: Candida albicans • ATCC 10231 • Potato Dextrose Broth • Contact Time=48 hours

[2] = test system: Aspergillus brasiliensis ATCC 16404; assay: as above; type: cell-based; details: A. brasiliensis ATCC 16404, PDB, contact time 7 days; for SI (Synergy Index, Qa/QA+Qb/QB): SI less than one = synergy; for MIC: Aspergillus brasiliensis, ATCC16404, 168 h, 25° C.
From the text: as §1, §2, §3, §4, §5, §6, §7, §8

Row | Compound | SI (Synergy Index, Qa/QA+Qb/QB) ([1]; SI less than one = synergy) | MIC ([1]; Candida albicans, ATCC10231, caprylic acid alone, 25° C., read-out: Caprylic Acid, ppm: MIC for caprylic acid alone (QB)) [µg/mL] | SI (Synergy Index, Qa/QA+Qb/QB) [2] | MIC ([2]; caprylic acid alone, read-out: Caprylic Acid, ppm: MIC for caprylic acid alone (QB)) [µg/mL] | MIC ([2]; lactic acid alone, read-out: Lactic Acid, ppm: MIC for lactic acid alone (QA)) [µg/mL]
1 | CCCCCCCC(=O)O [Caprylic Acid, octanoic acid] | 1.00 | 60 | 1.00 | 10000 | 
2 | CC(O)C(=O)O (stereo not drawn) [Lactic Acid, 2-hydroxypropanoic acid] |  |  | 1.00 |  | 30000
